US12528815B2, “5-amino-8-(4-pyridyl)-[1,2,4]triazolo[4,3-c]pyrimidin-3-one compounds for use against cancer” (Nxera Pharma UK Limited, priority 2020, dated 2026)

What was measured:
[1] = target: T1, human adenosine A1 receptor (Homo sapiens, UniProt P30542); assay: Inhibition binding assay, human adenosine A1 receptor membranes, [3H]DPCPX; conditions: 1 nM [3H]DPCPX, 25° C., 1 h; IC50 converted to Ki with Cheng-Prusoff; read-out: A1 pKi (converted)
T1 construct: expressed in transfected cells; host or cells: HEK293 cells infected with BacMam (the same paragraph also labels the preparation CHO-hA1)
T1 sequence (P30542 1-326): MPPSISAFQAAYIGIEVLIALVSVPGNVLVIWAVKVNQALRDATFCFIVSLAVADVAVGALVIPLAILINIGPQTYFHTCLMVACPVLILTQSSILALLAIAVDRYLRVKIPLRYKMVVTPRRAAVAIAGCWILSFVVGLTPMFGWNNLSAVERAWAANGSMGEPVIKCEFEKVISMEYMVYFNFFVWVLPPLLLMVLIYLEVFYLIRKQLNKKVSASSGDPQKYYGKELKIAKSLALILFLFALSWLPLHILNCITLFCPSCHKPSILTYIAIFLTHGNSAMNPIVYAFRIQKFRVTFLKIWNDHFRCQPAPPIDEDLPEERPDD
Outline: (§1)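 Membranes from BacMam-infected HEK293 cells (0.2 μg A2A, 1.4 μg A1) incubated 1 h at 25° C with test compound and 1 nM [3H]ZM241385 (A2A; 50 mM Tris-HCl pH 7.4) or [3H]DPCPX (A1; plus 100 mM NaCl, 10 mM MgCl2). Nonspecific: 1 μM CGS15943 or DPCPX. Filtration, scintillation; IC50 converted to Ki via Cheng-Prusoff.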

[2] = target: T2, human adenosine A2A receptor (Homo sapiens, UniProt P29274); assay: Inhibition binding assay, human adenosine A2A receptor membranes, [3H]ZM241385; conditions: 1 nM [3H]ZM241385, HEK293-hA2A membranes, 25° C., 1 h; IC50 converted to Ki with Cheng-Prusoff; read-out: A2A pKi (converted)
T2 construct: expressed in transfected cells; host or cells: HEK293 cells infected with BacMam
Outline: as §1

T2 sequence (P29274 whole entry): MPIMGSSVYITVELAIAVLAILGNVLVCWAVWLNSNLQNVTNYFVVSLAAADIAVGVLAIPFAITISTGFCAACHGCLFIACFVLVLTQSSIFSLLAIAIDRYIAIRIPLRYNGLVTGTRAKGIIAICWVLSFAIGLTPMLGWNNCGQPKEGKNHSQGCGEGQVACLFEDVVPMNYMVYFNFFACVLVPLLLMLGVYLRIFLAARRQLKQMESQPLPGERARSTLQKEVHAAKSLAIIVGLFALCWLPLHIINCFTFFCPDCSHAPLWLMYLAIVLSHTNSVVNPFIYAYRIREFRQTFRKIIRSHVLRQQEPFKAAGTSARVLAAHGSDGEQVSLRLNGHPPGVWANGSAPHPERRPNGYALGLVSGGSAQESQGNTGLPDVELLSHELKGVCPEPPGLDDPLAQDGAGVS

Ki [1] | Ki [2] | SMILES
0.1 µM | 0.002 µM | Cc1cc(-c2c(-c3ccccc3)nc(N)n3c(=O)n(C4Cc5ccc(N)cc5C4)nc23)cc(C)n1 (centres unmarked) [Example 1-104, 5-amino-2-(5-aminoindan-2-yl)-8-(2,6-dimethyl-4-pyridyl)-7-phenyl-[1,2,4]triazolo[4,3-c]pyrimidin-3-one]
0.631 µM | 0.0126 µM | Cc1cc(-c2c(-c3ccc(F)cc3)nc(N)n3c(=O)n(Cc4cccnn4)nc23)cc(CO)n1 [Example 1-58, 5-amino-7-(4-fluorophenyl)-8-[2-(hydroxymethyl)-6-methyl-4-pyridyl]-2-(pyridazin-3-ylmethyl)-[1,2,4]triazolo[4,3-c]pyrimidin-3-one]
0.631 µM | 0.00126 µM | [2H]c1c([2H])c([2H])c(-c2nc(N)n3c(=O)n(CCC(F)(F)F)nc3c2-c2cc(C)nc(CO)c2)c([2H])c1[2H] [Example 2-61, 5-amino-8-[2-(hydroxymethyl)-6-methyl-4-pyridyl]-7-(2,3,4,5,6-pentadeuteriophenyl)-2-(3,3,3-trifluoropropyl)-[1,2,4]triazolo[4,3-c]pyrimidin-3-one]
1 µM | 0.2 µM | Cc1cc(-c2c(-c3ccccc3)nc(N)n3c(=O)n(CC(N)=O)nc23)cc(C)n1 [Example 2-22, 2-[5-amino-8-(2,6-dimethyl-4-pyridyl)-3-oxo-7-phenyl-[1,2,4]triazolo[4,3-c]pyrimidin-2-yl]acetamide]
0.251 µM | 0.002 µM | [2H]c1c([2H])c([2H])c(-c2nc(N)n3c(=O)n(Cc4ccc(F)c(N)n4)nc3c2-c2cc(C)nc(CO)c2)c([2H])c1[2H] [Example 1-51, 5-amino-2-[(6-amino-5-fluoro-2-pyridyl)methyl]-8-[2-(hydroxymethyl)-6-methyl-4-pyridyl]-7-(2,3,4,5,6-pentadeuteriophenyl)-[1,2,4]triazolo[4,3-c]pyrimidin-3-one]
0.316 µM | 0.000501 µM | Cc1cc(-c2c(-c3ccccc3)nc(N)n3c(=O)n(CC4CCCOC4)nc23)cc(C)n1 (centres unmarked) [Example 2-81, 5-amino-8-(2,6-dimethyl-4-pyridyl)-7-phenyl-2-(tetrahydropyran-3-ylmethyl)-[1,2,4]triazolo[4,3-c]pyrimidin-3-one]
0.0126 µM | 0.000501 µM | COc1cc(C)nc(Cn2nc3c(-c4cc(C)nc(C)c4)c(-c4ccccc4)nc(N)n3c2=O)c1 [Example 1-29, 5-amino-8-(2,6-dimethyl-4-pyridyl)-2-[(4-methoxy-6-methyl-2-pyridyl)methyl]-7-phenyl-[1,2,4]triazolo[4,3-c]pyrimidin-3-one]
0.1 µM | 0.000251 µM | Cc1cc(-c2c(-c3ccccc3)nc(N)n3c(=O)n(Cc4ccc(F)c(N)n4)nc23)cc(C)n1 [Example 1-36, 5-amino-2-[(6-amino-5-fluoro-2-pyridyl)methyl]-8-(2,6-dimethyl-4-pyridyl)-7-phenyl-[1,2,4]triazolo[4,3-c]pyrimidin-3-one]
> 2 µM | 0.2 µM | CCC(c1ccc(F)cn1)n1nc2c(-c3cc(C)nc(C)c3)c(-c3ccccc3)nc(N)n2c1=O (single isomer, unassigned) [Example 1-38-iso-2, 5-amino-8-(2,6-dimethyl-4-pyridyl)-2-[1-(5-fluoro-2-pyridyl)propyl]-7-phenyl-[1,2,4]triazolo[4,3-c]pyrimidin-3-one]
0.631 µM | 0.02 µM | CCn1nc2c(-c3cc(C)nc(C)c3)c(-c3ccccc3)nc(N)n2c1=O [Example 2-3, 5-amino-8-(2,6-dimethyl-4-pyridyl)-2-ethyl-7-phenyl-[1,2,4]triazolo[4,3-c]pyrimidin-3-one]
0.398 µM | 0.00398 µM | Cc1cc(-c2c(-c3ccccc3)nc(N)n3c(=O)n(CCN(C)C4CC4)nc23)cc(C)n1 [Example 2-19, 5-amino-2-[2-[cyclopropyl(methyl)amino]ethyl]-8-(2,6-dimethyl-4-pyridyl)-7-phenyl-[1,2,4]triazolo[4,3-c]pyrimidin-3-one]
0.398 µM | 0.01 µM | Cc1cc(-c2c(-c3ccccc3)nc(N)n3c(=O)n(CCN[C@@H](C)c4cccc(C)n4)nc23)cc(C)n1 [Example 1-94, 5-amino-8-(2,6-dimethyl-4-pyridyl)-2-[2-[[(1S)-1-(6-methyl-2-pyridyl)ethyl]amino]ethyl]-7-phenyl-[1,2,4]triazolo[4,3-c]pyrimidin-3-one]
0.316 µM | 0.00398 µM | Cc1cc(-c2c(-c3ccccc3)nc(N)n3c(=O)n(CC45CC(F)(C4)C5)nc23)cc(CO)n1 [Example 2-59, 5-amino-2-[(3-fluoro-1-bicyclo[1.1.1]pentanyl)methyl]-8-[2-(hydroxymethyl)-6-methyl-4-pyridyl]-7-phenyl-[1,2,4]triazolo[4,3-c]pyrimidin-3-one]
0.398 µM | 0.00316 µM | Cc1cc(-c2c(-c3ccccc3)nc(N)n3c(=O)n(C[C@H]4COCCN4C)nc23)cc(C)n1 [Example 2-77, 5-amino-8-(2,6-dimethyl-4-pyridyl)-2-[[(3S)-4-methylmorpholin-3-yl]methyl]-7-phenyl-[1,2,4]triazolo[4,3-c]pyrimidin-3-one]
0.794 µM | 0.01 µM | Cc1cc(-c2c(-c3ccccc3)nc(N)n3c(=O)n(CC(CO)CO)nc23)cc(C)n1 [Example 2-24, 5-amino-8-(2,6-dimethyl-4-pyridyl)-2-[3-hydroxy-2-(hydroxymethyl)propyl]-7-phenyl-[1,2,4]triazolo[4,3-c]pyrimidin-3-one]
0.794 µM | 0.0158 µM | Cc1cc(-c2c(-c3ccccc3)nc(N)n3c(=O)n([C@H](C)c4ccncc4)nc23)cc(C)n1 [Example 1-26, (R)-5-amino-8-(2,6-dimethyl-4-pyridyl)-7-phenyl-2-[1-(4-pyridyl)ethyl]-[1,2,4]triazolo[4,3-c]pyrimidin-3-one]
0.2 µM | 0.001 µM | Cc1cc(-c2c(-c3ccccc3)nc(N)n3c(=O)n(Cc4ncc(F)cc4Cl)nc23)cc(CO)n1 [Example 1-50, 5-amino-2-[(3-chloro-5-fluoro-2-pyridyl)methyl]-8-[2-(hydroxymethyl)-6-methyl-4-pyridyl]-7-phenyl-[1,2,4]triazolo[4,3-c]pyrimidin-3-one]
0.0126 µM | 0.000501 µM | Cc1cc(-c2c(-c3ccccc3)nc(N)n3c(=O)n(CC4(Cc5ccccc5)CCNCC4)nc23)cc(C)n1 [Example 1-102, 5-amino-2-[(4-benzyl-4-piperidyl)methyl]-8-(2,6-dimethyl-4-pyridyl)-7-phenyl-[1,2,4]triazolo[4,3-c]pyrimidin-3-one]
0.251 µM | 0.02 µM | Cc1cc(-c2c(-c3ccccc3)nc(N)n3c(=O)n(CCc4ccc(F)cc4)nc23)cc(C)n1 [Example 1-83, 5-amino-8-(2,6-dimethyl-4-pyridyl)-2-[2-(4-fluorophenyl)ethyl]-7-phenyl-[1,2,4]triazolo[4,3-c]pyrimidin-3-one]
0.631 µM | 0.0158 µM | Cc1cc(-c2c(-c3ccccc3)nc(N)n3c(=O)n(C[C@@H]4CN(C)CCO4)nc23)cc(C)n1 [Example 2-72, 5-amino-8-(2,6-dimethyl-4-pyridyl)-2-[[(2S)-4-methylmorpholin-2-yl]methyl]-7-phenyl-[1,2,4]triazolo[4,3-c]pyrimidin-3-one]
0.251 µM | 0.0126 µM | Cc1cc(-c2c(-c3ccccc3)nc(N)n3c(=O)n(CCc4ccc(O)cc4)nc23)cc(C)n1 [Example 1-82, 5-amino-8-(2,6-dimethyl-4-pyridyl)-2-[2-(4-hydroxyphenyl)ethyl]-7-phenyl-[1,2,4]triazolo[4,3-c]pyrimidin-3-one]
> 3.98 µM | 0.0158 µM | Cc1cc(-c2c(-c3ccc(F)cc3F)nc(N)n3c(=O)n(CCC(F)(F)F)nc23)cc(C)n1 [Example 2-34, 5-amino-7-(2,4-difluorophenyl)-8-(2,6-dimethyl-4-pyridyl)-2-(3,3,3-trifluoropropyl)-[1,2,4]triazolo[4,3-c]pyrimidin-3-one]
0.00631 µM | 0.000794 µM | Cc1cc(-c2c(-c3ccccc3)nc(N)n3c(=O)n(CCC(F)(F)F)nc23)cc(Cl)n1 [Example 2-48, 5-amino-8-(2-chloro-6-methyl-4-pyridyl)-7-phenyl-2-(3,3,3-trifluoropropyl)-[1,2,4]triazolo[4,3-c]pyrimidin-3-one]
> 2.51 µM | 0.0316 µM | Cc1cc(-c2c(-c3ccc(F)cc3)nc(N)n3c(=O)n(CCN4CCCCC4)nc23)cc(Cl)n1 [Example 2-105, 5-amino-8-(2-chloro-6-methyl-4-pyridyl)-7-(4-fluorophenyl)-2-[2-(1-piperidyl)ethyl]-[1,2,4]triazolo[4,3-c]pyrimidin-3-one]
0.2 µM | 0.00316 µM | Cc1cc(-c2c(-c3ccccc3)nc(N)n3c(=O)n(CCCn4ccccc4=O)nc23)cc(C)n1 [Example 2-112, 5-amino-8-(2,6-dimethylpyridin-4-yl)-2-(3-(2-oxopyridin-1(2H)-yl)propyl)-7-phenyl-[1,2,4]triazolo[4,3-c]pyrimidin-3(2H)-one]
